Blank lines part the entries; values can stand above or below the compound they belong to. Activity calls are given as the source filed them.
How the values were obtained:
[1] = glucagon-like peptide-1 release potency in STC-1, concentration-response, half-maximal inhibitory concentration in the STC-1 line (AID 1117345); format: functional, cell-based
[2] = Potency on glucagon-like peptide 1 release, dose-response in NCI-H716 cell line, half maximal inhibitory concentration (AID 1117344); format: functional, cell-based
[3] = target: Luciferin 4-monooxygenase (Photinus pyralis, UniProt P08659); assay: inhibition of purified Photinus pyralis luciferase – biochemical, luminescence, dose response (AID 1891)
[4] = Luminescence Cell-Based Dose Confirmation HTS to Identify Inhibitors of Platelet Dense Granule Release. [Related pubchem assays: 1663 (Primary HTS), 1678 (Summary of Project)]; format: functional
[5] = Fluorescence Cell-Based Dose Response to Identify Inhibitors of Thrombin Receptor-Activating Peptide SFLLRN-Mediated P-Selectin Induction on Platelets. [Related pubchem assays: 1663 (Primary HTS), 1889 (retest at dose ), 1891 (counterscreen), 1678 (Project Summary)]; format: functional
Bcl-2-related protein A1 [6] = target: T1, Bcl-2-related protein A1 (Mus musculus, UniProt Q07440); assay: small-molecule antagonists of Bfl-1/BH3 interaction – biochemical, TR-FRET, mouse Bfl-1, confirmation (AID 621);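 note: TR-FRET binding of GST-Bfl-1 to FITC-labelled Bid peptide via terbium antibody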
T1 sequence (Q07440 whole entry): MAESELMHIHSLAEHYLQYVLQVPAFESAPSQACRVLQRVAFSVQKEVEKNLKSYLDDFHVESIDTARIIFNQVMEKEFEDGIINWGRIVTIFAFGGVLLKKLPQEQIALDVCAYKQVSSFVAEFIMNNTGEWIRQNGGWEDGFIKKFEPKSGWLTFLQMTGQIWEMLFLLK

Bcl-2-related protein A1 [7] = target: T1, Bcl-2-related protein A1; assay: Bfl-1 binding inhibitors, SAR follow-up, biochemical, fluorescence polarization (AID 1070)
Protein skinhead-1 = target: T2, Protein skinhead-1 (Caenorhabditis elegans, UniProt P34707); format: functional
T2 sequence (P34707 whole entry): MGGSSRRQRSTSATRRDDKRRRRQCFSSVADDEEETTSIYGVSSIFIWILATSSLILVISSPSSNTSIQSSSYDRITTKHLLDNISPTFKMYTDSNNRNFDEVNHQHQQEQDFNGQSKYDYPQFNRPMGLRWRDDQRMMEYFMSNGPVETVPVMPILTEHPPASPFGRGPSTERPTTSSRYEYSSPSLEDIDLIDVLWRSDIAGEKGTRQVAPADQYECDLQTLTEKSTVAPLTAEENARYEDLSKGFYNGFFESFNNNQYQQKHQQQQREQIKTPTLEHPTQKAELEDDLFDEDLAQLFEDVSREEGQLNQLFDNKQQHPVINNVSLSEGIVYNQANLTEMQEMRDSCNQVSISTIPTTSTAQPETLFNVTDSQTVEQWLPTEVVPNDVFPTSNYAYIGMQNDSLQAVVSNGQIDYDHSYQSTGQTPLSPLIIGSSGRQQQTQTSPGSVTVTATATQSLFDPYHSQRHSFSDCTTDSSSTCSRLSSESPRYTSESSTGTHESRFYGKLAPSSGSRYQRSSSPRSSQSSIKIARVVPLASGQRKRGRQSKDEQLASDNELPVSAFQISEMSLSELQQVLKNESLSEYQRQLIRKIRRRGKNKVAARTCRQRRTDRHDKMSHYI

[8] = target: T3, Oxysterols receptor LXR-beta (Homo sapiens, UniProt P55055); format: functional, cell-based;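 note: agonist activity at LXR measured by a cell-based luminescence readout across a dose range, run as a counterscreen for daf-12 agonists; HEK293 cells with Gal4-LXR fusion and GAL4-driven luciferase reporter; potency for activation of Gal4-LXR reporter so compounds are agonists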
T3 sequence (P55055 whole entry): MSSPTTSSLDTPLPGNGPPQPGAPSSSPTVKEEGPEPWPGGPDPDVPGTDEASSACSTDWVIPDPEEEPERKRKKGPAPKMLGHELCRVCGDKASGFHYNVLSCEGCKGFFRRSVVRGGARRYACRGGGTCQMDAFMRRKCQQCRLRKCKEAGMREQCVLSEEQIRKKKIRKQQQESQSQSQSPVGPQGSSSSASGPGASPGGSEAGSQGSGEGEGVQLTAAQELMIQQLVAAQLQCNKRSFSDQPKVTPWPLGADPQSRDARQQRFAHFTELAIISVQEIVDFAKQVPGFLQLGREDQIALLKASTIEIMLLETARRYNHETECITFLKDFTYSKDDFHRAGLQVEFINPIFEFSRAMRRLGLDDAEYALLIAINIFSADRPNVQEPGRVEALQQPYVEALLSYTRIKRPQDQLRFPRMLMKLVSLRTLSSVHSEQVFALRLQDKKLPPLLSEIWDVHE

[9] = target: Diphosphomevalonate decarboxylase (Streptococcus pneumoniae serotype 2 (strain D39 / NCTC 7466), UniProt Q9FD53); assay: diphosphomevalonate decarboxylase inhibitor confirmation – biochemical, cuvette format, coupled NADH fluorescence (AID 1028); format: functional
[10] = Late-stage results from the probe development effort to identify antagonists of arginine vasopressin receptor 1a (AVPR1a): fluorescence-based cell-based dose response AVPR1a inhibition assay.; format: functional
Vasopressin V1b receptor = Vasopressin V1b receptor (Homo sapiens, UniProt P47901); assay: Late-stage results from the probe development effort to identify antagonists of arginine vasopressin receptor 1a (AVPR1a): fluorescence-based cell-based dose response AVPR1b inhibition counterscreen assay.; format: functional
Vasopressin V2 receptor = Vasopressin V2 receptor (Homo sapiens, UniProt P30518); assay: Late-stage results from the probe development effort to identify antagonists of arginine vasopressin receptor 1a (AVPR1a): fluorescence-based cell-based dose response AVPR2 inhibition counterscreen assay.; format: functional
[11] = Late-stage results from the probe development effort to identify antagonists of arginine vasopressin receptor 1a (AVPR1a): fluorescence-based cell-based dose response OXTR inhibition counterscreen assay.; format: functional
[12] = viability of uninfected HEp-2 cells – cell-based, HTS, cytotoxicity control for RSV inhibitor project, dose response (AID 2410); format: functional; details: human respiratory syncytial virus
Genome polyprotein = Genome polyprotein (Hepatitis C virus, UniProt Q2Q167); assay: disruption of hepatitis C core self-association – biochemical, TR-FRET, dose response (AID 2159); design: species or system Hepacivirus hominis;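 note: blocks dimerization of HCV core protein measured by TR-FRET between tagged core106 pairs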
Estrogen receptor = Estrogen receptor (Homo sapiens, UniProt P03372);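 note: potency for inhibiting coactivator peptide recruitment to the receptor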
14-3-3 protein gamma = 14-3-3 protein gamma (Homo sapiens, UniProt P61981); assay: modulators of 14-3-3 gamma client binding – dose response (AID 711); format: functional
[13] = HIV-1 Vif–A3G interaction blockers – biochemical, TR-FRET, GST-Vif 1-94, biotin-A3G peptide, dose response retest, primary screen (AID 1117319); format: functional;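 note: TR-FRET signal of purified GST-Vif binding a biotinylated A3G peptide; inhibitors lower the FRET signal by blocking Vif and A3G binding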
[14] = target: RNA-editing ligase 1, mitochondrial (Trypanosoma brucei brucei, UniProt P86926); assay: inhibition of trypanosome RNA editing ligase – biochemical, fluorescence, Trypanosoma brucei, dose response (AID 1117295); format: functional
RNA-editing ligase 1, mitochondrial, sequence (P86926 whole entry): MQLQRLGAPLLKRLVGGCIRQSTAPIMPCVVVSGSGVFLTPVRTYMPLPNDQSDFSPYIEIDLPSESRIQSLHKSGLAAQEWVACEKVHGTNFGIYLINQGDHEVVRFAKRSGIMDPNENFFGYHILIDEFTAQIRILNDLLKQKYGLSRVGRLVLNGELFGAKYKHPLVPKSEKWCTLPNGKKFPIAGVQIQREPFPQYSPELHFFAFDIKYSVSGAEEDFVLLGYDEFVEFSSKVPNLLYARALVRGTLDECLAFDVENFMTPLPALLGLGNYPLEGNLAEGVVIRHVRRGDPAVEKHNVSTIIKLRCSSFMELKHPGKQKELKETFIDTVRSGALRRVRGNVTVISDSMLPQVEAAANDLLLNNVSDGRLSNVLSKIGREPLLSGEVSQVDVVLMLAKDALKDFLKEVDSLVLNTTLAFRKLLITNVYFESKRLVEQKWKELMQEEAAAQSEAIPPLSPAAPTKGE

Luciferin 4-monooxygenase, sequence (P08659 whole entry): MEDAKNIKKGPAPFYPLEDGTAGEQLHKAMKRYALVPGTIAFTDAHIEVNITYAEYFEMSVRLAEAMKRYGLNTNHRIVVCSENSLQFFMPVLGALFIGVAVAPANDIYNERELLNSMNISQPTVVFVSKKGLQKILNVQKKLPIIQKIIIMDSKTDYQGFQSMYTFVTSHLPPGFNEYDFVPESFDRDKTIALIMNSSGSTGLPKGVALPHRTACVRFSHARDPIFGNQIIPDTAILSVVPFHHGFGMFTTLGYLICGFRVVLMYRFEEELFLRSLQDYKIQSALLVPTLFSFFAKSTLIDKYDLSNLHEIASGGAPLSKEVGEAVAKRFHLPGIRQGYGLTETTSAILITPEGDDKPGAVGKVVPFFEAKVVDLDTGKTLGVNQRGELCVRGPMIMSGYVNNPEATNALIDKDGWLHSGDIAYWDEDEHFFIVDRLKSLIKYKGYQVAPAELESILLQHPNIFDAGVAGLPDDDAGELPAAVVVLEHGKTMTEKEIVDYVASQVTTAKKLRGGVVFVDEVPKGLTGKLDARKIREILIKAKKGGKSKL
Estrogen receptor, sequence (P03372 whole entry): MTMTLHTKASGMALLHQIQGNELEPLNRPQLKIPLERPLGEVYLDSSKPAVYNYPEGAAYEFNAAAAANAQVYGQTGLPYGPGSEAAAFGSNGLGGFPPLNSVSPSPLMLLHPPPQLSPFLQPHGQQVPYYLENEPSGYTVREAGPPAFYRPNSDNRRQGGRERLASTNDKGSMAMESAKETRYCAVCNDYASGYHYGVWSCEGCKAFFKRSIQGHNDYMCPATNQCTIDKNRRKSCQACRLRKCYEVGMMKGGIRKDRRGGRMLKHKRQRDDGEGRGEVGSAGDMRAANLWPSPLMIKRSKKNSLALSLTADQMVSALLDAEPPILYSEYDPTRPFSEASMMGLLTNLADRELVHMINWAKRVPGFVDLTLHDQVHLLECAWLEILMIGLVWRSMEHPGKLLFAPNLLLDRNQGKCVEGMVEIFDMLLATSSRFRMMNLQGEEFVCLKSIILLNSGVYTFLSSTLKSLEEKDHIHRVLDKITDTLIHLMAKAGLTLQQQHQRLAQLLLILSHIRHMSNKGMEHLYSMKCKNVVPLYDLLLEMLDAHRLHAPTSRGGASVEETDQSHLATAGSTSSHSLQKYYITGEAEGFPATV
Vasopressin V2 receptor, sequence (P30518 whole entry): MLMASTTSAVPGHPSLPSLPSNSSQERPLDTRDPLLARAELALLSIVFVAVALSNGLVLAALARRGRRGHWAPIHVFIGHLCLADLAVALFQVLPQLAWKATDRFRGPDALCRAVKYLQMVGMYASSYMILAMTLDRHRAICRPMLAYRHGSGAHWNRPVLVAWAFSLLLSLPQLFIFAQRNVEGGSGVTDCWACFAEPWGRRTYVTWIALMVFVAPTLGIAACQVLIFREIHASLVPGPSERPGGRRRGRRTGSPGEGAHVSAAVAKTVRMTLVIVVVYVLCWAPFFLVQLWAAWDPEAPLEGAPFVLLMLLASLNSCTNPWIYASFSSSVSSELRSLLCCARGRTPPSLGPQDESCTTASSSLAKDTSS
Vasopressin V1b receptor, sequence (P47901 whole entry): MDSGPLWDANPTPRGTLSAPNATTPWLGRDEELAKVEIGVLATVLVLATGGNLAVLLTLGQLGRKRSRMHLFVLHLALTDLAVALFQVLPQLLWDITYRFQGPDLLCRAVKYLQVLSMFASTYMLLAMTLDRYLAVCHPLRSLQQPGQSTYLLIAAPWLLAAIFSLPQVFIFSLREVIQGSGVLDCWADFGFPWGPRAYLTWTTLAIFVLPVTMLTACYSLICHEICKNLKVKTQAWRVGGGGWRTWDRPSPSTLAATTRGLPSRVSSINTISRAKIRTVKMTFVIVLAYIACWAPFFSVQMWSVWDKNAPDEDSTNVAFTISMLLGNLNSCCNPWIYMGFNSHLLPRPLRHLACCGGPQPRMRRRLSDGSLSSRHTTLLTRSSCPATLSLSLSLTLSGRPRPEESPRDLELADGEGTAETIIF
14-3-3 protein gamma, sequence (P61981 whole entry): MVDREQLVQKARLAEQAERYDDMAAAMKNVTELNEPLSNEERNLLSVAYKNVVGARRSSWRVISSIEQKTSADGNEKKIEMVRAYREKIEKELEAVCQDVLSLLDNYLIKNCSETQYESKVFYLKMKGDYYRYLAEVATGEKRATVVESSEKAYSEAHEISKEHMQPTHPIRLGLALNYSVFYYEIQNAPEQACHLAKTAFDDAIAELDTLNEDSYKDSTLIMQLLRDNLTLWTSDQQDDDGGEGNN
Diphosphomevalonate decarboxylase, sequence (Q9FD53 whole entry): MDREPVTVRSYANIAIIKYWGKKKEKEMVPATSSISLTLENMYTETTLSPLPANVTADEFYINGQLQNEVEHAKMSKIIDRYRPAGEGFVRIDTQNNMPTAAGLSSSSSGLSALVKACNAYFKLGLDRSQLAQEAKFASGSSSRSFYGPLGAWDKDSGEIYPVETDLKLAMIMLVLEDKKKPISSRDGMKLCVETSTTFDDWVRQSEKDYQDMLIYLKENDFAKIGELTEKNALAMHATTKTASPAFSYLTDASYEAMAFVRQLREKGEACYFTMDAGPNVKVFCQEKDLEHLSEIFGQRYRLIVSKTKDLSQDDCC
Genome polyprotein, sequence (Q2Q167 whole entry): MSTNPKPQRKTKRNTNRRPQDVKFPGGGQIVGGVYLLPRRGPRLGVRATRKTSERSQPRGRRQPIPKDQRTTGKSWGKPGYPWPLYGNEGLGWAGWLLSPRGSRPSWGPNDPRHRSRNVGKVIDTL

SMILES: CCCCCCCC/C=C\CCCCCCCCN
IC50 [1]: > 40 µM (inactive) | IC50 [2]: 14.8 µM (inactive)

SMILES: COc1ccc(C(=O)Nc2ccc(N3CCOCC3)cc2)cc1OC
EC50 [3]: 24.2 µM (active) | EC50 [4]: 1.95 µM (active) | EC50 [5]: > 100 µM (not active)

IC50 (Bcl-2-related protein A1 [6]): > 100 µM (not active) | IC50 (Bcl-2-related protein A1 [7]): > 100 µM (not active) | IC50 (Protein skinhead-1): 21 µM (active) | EC50 [8]: > 67.5 µM (inactive)
SMILES: Fc1ccc(-n2nnc(-c3cccnc3Cl)n2)cc1

SMILES: CCN(CC)C(=O)c1cccc(-n2sc3ccccc3c2=O)c1
IC50 [9]: 16.7 µM (active)

SMILES: O=C(C1CCN(c2ccc(C(F)(F)F)cn2)CC1)N(CC1CC1)c1ccc(Cl)cc1
IC50 [10]: 0.123 µM (active) | IC50 (Vasopressin V1b receptor): 31.7 µM (inactive) | IC50 (Vasopressin V2 receptor): 19.3 µM (inactive) | IC50 [11]: 12.6 µM (inactive)

IC50 (Genome polyprotein): > 49.8 µM (not active) | IC50 (Estrogen receptor): > 50 µM (not active)
SMILES: CCn1c(SCC(=O)Nc2ccc3c(c2)c2ccccc2n3CC)nnc1-c1ccco1
CC50 [12]: 48.9 µM (active)

IC50 (14-3-3 protein gamma): > 50 µM (not active)
SMILES: CNC(=O)C(Sc1ccccc1)c1ccccc1 (stereo not given)

IC50 [13]: > 100 µM (active)
SMILES: Cc1noc(C)c1C(=O)N1CCc2ccccc2C1

IC50 [14]: > 96.6 µM (inactive)
SMILES: Clc1ccc(CN=C(Nc2ccccc2)NC2CCCCC2)cc1

Reference: ChEMBL document CHEMBL1201862, “PubChem BioAssay data set” (2004)
